From ChEMBL document CHEMBL2440029, “Discovery and characterization of NVP-QAV680, a potent and selective CRTh2 receptor antagonist suitable for clinical testing in allergic diseases” (Bioorg Med Chem, 2013)
≈ marks a conversion by molar mass, not a printed value. Calls of active or inactive are those of the source. No cut-off for these calls is given here.

Experiments:
[1] = target: T1, Prostaglandin D2 receptor 2 (Homo sapiens) (UniProt Q9Y5Y4); test: Antagonist activity at human CRTh2 receptor expressed in CHO cells assessed as inhibition of prostaglandin D2 and forskolin-induced cAMP accumulation after 45 mins in presence of 0.1% HSA; format: functional, cell-based
T1 sequence (whole entry): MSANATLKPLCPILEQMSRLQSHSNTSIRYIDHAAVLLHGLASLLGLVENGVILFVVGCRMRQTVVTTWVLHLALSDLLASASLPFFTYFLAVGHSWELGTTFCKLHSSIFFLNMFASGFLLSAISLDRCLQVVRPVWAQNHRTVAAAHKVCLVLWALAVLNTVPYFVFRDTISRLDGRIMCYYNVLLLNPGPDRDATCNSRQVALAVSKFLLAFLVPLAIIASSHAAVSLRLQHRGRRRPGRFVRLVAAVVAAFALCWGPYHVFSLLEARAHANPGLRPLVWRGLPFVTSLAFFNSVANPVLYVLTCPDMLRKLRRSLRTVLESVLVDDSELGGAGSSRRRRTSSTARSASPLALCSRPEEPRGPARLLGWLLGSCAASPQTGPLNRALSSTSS

[2] = target: T2, Prostaglandin D2 receptor 2 (Homo sapiens, UniProt Q9Y5Y4); test: Displacement of [3H]-prostaglandin D2 from human CRTh2 receptor expressed in CHO cells after 2 hrs; format: cell-based
T2 sequence (Q9Y5Y4 whole entry): T1 sequence (whole entry)

[3] = target: T2, Prostaglandin D2 receptor 2; test: Antagonist activity at human CRTh2 receptor expressed in CHO cells assessed as inhibition of prostaglandin D2 and forskolin-induced cAMP accumulation after 45 mins; format: functional, cell-based
[4] = Antagonist activity at CRTh2 receptor in human isolated eosinophil assessed as inhibition of DK-PGD2-induced shape change after 5 mins by flow cytometry
[5] = target: Prostaglandin G/H synthase 1 (Homo sapiens) (UniProt P23219); test: Inhibition of human COX1 at 10 uM
[6] = target: T3, Prostaglandin G/H synthase 2 (Homo sapiens) (UniProt P35354); test: Inhibition of human COX2 at 10 uM
T3 sequence (whole entry): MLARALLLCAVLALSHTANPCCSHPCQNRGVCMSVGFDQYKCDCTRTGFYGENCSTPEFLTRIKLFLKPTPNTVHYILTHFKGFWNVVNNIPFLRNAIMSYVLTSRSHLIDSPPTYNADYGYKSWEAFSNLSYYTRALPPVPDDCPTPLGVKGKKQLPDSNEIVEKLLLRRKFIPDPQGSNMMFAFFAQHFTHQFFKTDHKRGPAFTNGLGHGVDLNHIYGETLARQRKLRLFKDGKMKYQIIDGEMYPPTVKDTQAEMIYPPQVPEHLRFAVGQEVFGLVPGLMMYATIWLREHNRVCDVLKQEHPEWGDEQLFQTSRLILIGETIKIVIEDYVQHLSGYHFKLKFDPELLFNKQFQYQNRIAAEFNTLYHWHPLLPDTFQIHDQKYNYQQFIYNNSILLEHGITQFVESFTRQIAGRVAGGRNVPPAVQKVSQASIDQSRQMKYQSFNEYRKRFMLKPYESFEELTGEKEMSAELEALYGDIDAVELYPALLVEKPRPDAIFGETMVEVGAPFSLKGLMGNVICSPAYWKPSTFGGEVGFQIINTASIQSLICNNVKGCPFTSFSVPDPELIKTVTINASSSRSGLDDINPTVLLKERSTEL

[7] = Oral bioavailability in Wistar rat at 100 mg/kg; format: ADME, organism-based; settings: in vivo
[8] = target: T4, Prostaglandin D2 receptor 2 (Mus musculus, UniProt Q9Z2J6); test: Displacement of [3H]-prostaglandin D2 from mouse CRTh2 receptor expressed in CHO cells after 2 hrs; format: cell-based
Rattus norvegicus [9] = test: Inhibition of eosinophil recruitment in bronchoalveolar lavage in po dosed Sprague-Dawley rat allergic disease model; format: functional, organism-based; settings: Lung
Mus musculus = test: Inhibition of FITC hapten-induced ear edema in po dosed Balb/cJBomTac mouse allergic contact dermatitis model after 24 hrs; format: functional
[10] = Oral bioavailability in Wistar rat at 3 mg/kg; format: ADME, organism-based; settings: in vivo
[11] = Tmax in Wistar rat at 3 mg/kg, po; format: ADME, organism-based; design: dose 3 mg/kg, route oral; settings: in vivo
[12] = Tmax in Wistar rat at 100 mg/kg, po; format: ADME, organism-based; design: dose 100 mg/kg, route oral; settings: in vivo
[13] = target: Prostaglandin F2-alpha receptor (Homo sapiens, UniProt P43088); test: Inhibition of prostanoid FP receptor (unknown origin)
[14] = target: Prostaglandin E2 receptor EP3 subtype (Homo sapiens, UniProt P43115); test: Inhibition of prostanoid EP3 receptor (unknown origin)
[15] = Cmax in Balb/c mouse at 5 mg/kg, po; format: ADME, organism-based; design: dose 5 mg/kg, route oral; settings: in vivo
[16] = target: Prostaglandin E2 receptor EP2 subtype (Homo sapiens, UniProt P43116); test: Inhibition of prostanoid EP2 receptor (unknown origin)
Cytochrome P450 1A2 = Cytochrome P450 1A2 (Homo sapiens, UniProt P05177); test: Inhibition of human CYP1A2; format: ADME
[17] = Cmax in Wistar rat at 100 mg/kg, po; format: ADME, organism-based; design: dose 100 mg/kg, route oral; settings: in vivo
Rattus norvegicus [18] = test: Inhibition of eosinophil recruitment in bronchoalveolar lavage in Sprague-Dawley rat allergic disease model at 1 mg/kg, po; format: functional, organism-based; design: dose 1 mg/kg; settings: Lung
Cytochrome P450 2C9 = Cytochrome P450 2C9 (Homo sapiens, UniProt P11712); test: Inhibition of human CYP2C9; format: ADME
[19] = Apparent permeability from basolateral to apical side in human Caco2 cells; format: ADME, cell-based; settings: Caco-2
[20] = target: Prostaglandin D2 receptor (Homo sapiens, UniProt Q13258); test: Inhibition of prostanoid DP1 receptor (unknown origin)
[21] = target: Prostaglandin E2 receptor EP4 subtype (Homo sapiens, UniProt P35408); test: Inhibition of prostanoid EP4 receptor (unknown origin)
[22] = Fraction unbound in Sprague-Dawley rat plasma at 0.1 to 0.3 mg/kg, po; format: ADME, organism-based; design: dose 0.1-0.3 mg/kg, route oral
[23] = target: T4, Prostaglandin D2 receptor 2; test: Antagonist activity at mouse CRTh2 receptor expressed in CHO-K1 cells assessed as inhibition of […]-GTP-gamma-S binding after 50 mins by liquid scintillation counting; format: functional, cell-based
[24] = Volume of distribution at steady state in Wistar rat at 0.5 mg/kg, iv; format: ADME, organism-based; design: dose 0.5 mg/kg, route intravenous; settings: in vivo, read-out: Vdss
[25] = Apparent permeability from apical to basolateral side in human Caco2 cells; format: ADME, cell-based; settings: Caco-2
[26] = Inhibition of DK-PGD2-induced IL-5 production in human CD4+ Th2 cells after 6 to 8 hrs; format: functional, cell-based
[27] = target: Cysteinyl leukotriene receptor 1 (Homo sapiens) (UniProt Q9Y271); test: Inhibition of CysLT1 receptor (unknown origin) at 10 uM
[28] = target: Cysteinyl leukotriene receptor 2 (Homo sapiens) (UniProt Q9NS75); test: Inhibition of CysLT2 receptor (unknown origin) at 10 uM
[29] = Cmax in Wistar rat at 3 mg/kg, po; format: ADME, organism-based; design: dose 3 mg/kg, route oral; settings: in vivo
[30] = target: Leukotriene B4 receptor 1 (Homo sapiens) (UniProt Q15722); test: Inhibition of LTB4 receptor (unknown origin) at 10 uM
[31] = Terminal half life in Wistar rat at 0.5 mg/kg, iv; format: ADME, organism-based; design: dose 0.5 mg/kg, route intravenous; settings: in vivo, read-out: beta t1/2 (converted)
Cytochrome P450 3A4 = Cytochrome P450 3A4 (Homo sapiens, UniProt P08684); test: Inhibition of human CYP3A4; format: ADME
[32] = AUC (0 to 48 hrs) in Wistar rat at 3 mg/kg, po; format: ADME, organism-based; design: time < 48 hr, dose 3 mg/kg, route oral; settings: plasma
[33] = Clearance in Wistar rat at 0.5 mg/kg, iv; format: ADME, organism-based; design: dose 0.5 mg/kg, route intravenous; settings: in vivo
[34] = target: Polyunsaturated fatty acid 5-lipoxygenase (Homo sapiens) (UniProt P09917); test: Inhibition of human 5-lipoxygenase at 10 uM
Prostacyclin receptor = Prostacyclin receptor (Homo sapiens, UniProt P43119); test: Inhibition of prostanoid IP receptor (unknown origin)
Cytochrome P450 2D6 = Cytochrome P450 2D6 (Homo sapiens, UniProt P10635); test: Inhibition of human CYP2D6; format: ADME
Thromboxane A2 receptor = Thromboxane A2 receptor (Homo sapiens, UniProt P21731); test: Inhibition of prostanoid TP receptor (unknown origin)
[35] = AUC (0 to 48 hrs) in Wistar rat at 100 mg/kg, po; format: ADME, organism-based; design: time < 48 hr, dose 100 mg/kg, route oral; settings: plasma
[36] = Inhibition of DK-PGD2-induced IL-13 production in human CD4+ Th2 cells after 6 to 8 hrs; format: functional, cell-based
[37] = Solubility of the compound at pH 6.8; format: physicochemical; settings: buffer

Sequence of Prostaglandin G/H synthase 1 (Homo sapiens) (P23219 whole entry): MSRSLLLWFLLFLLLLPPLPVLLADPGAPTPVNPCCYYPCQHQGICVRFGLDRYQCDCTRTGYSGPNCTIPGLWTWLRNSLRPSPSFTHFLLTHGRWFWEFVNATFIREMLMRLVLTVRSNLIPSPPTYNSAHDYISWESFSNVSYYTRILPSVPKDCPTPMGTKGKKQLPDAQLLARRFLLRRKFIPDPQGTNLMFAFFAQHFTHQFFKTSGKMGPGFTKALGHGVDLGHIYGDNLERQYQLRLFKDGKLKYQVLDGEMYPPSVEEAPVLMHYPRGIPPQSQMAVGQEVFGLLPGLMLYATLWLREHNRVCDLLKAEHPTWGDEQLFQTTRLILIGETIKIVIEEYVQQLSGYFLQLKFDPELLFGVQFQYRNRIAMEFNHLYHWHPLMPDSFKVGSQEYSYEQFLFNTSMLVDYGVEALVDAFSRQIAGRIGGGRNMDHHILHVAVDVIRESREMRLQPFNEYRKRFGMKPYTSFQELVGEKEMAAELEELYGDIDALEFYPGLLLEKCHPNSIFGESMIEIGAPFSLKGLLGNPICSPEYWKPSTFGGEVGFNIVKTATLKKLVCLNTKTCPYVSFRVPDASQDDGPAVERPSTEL
T4 sequence (Q9Z2J6 whole entry): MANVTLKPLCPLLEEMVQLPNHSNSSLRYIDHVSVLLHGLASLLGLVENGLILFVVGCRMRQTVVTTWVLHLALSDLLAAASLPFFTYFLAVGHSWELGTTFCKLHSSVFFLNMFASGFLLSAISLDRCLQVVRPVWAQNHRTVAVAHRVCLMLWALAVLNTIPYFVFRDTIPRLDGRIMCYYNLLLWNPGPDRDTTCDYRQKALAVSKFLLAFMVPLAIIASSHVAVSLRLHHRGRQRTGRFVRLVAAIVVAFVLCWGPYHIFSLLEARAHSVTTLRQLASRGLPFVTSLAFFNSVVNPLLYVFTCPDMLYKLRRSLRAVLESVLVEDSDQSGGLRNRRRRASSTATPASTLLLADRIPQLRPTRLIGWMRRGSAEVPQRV
Sequence of Prostaglandin D2 receptor (Q13258 whole entry): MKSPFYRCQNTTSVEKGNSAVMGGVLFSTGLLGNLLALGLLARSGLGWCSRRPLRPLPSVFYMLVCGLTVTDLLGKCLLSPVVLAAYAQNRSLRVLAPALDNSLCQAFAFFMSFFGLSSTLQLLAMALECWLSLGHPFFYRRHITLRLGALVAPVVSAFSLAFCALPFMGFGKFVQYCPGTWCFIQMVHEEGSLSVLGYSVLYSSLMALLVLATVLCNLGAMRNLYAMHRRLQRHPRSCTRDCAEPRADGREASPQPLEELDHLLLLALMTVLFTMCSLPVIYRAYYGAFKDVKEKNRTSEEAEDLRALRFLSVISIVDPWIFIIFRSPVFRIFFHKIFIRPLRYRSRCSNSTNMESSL
Sequence of Cysteinyl leukotriene receptor 1 (Homo sapiens) (Q9Y271 whole entry): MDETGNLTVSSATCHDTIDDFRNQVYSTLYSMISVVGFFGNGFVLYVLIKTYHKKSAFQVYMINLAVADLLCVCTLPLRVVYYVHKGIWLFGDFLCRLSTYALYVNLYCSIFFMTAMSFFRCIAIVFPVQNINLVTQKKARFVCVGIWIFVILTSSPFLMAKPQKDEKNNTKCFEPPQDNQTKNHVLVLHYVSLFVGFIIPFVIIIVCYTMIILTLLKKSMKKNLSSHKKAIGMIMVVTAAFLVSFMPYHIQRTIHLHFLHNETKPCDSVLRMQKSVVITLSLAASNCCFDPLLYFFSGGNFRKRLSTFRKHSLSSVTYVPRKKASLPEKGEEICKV
Sequence of Cytochrome P450 3A4 (P08684 whole entry): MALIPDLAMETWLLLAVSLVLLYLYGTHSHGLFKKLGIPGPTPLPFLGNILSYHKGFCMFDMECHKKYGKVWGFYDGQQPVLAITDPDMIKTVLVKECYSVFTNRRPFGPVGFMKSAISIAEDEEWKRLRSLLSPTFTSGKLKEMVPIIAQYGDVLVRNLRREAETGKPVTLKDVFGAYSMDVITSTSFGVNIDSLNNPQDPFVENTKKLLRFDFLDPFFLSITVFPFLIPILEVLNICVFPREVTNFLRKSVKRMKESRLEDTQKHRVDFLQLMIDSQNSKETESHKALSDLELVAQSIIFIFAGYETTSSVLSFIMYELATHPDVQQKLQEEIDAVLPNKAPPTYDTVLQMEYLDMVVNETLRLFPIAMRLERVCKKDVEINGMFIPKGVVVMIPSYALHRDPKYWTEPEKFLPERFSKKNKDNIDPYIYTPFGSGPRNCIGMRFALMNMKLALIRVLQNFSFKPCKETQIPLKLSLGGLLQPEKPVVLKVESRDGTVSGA
Sequence of Thromboxane A2 receptor (P21731 whole entry): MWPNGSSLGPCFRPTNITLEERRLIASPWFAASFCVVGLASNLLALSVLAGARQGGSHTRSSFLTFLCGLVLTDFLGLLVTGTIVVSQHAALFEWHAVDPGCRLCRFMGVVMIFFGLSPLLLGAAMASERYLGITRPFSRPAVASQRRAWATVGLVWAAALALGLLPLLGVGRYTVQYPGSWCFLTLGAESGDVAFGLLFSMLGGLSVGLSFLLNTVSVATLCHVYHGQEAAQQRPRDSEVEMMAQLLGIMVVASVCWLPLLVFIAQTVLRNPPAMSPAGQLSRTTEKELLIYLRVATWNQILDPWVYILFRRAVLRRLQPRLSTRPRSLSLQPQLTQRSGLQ
Sequence of Cysteinyl leukotriene receptor 2 (Homo sapiens) (Q9NS75 whole entry): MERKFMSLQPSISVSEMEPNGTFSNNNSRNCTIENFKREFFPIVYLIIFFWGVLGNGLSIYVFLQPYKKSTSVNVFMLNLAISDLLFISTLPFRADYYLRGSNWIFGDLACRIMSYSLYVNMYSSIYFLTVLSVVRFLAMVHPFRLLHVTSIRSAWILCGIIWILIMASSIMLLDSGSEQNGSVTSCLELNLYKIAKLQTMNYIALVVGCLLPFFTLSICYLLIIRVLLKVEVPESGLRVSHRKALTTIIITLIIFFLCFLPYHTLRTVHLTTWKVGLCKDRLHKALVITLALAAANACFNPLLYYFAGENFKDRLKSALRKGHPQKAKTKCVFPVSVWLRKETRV
Sequence of Prostaglandin E2 receptor EP4 subtype (P35408 whole entry): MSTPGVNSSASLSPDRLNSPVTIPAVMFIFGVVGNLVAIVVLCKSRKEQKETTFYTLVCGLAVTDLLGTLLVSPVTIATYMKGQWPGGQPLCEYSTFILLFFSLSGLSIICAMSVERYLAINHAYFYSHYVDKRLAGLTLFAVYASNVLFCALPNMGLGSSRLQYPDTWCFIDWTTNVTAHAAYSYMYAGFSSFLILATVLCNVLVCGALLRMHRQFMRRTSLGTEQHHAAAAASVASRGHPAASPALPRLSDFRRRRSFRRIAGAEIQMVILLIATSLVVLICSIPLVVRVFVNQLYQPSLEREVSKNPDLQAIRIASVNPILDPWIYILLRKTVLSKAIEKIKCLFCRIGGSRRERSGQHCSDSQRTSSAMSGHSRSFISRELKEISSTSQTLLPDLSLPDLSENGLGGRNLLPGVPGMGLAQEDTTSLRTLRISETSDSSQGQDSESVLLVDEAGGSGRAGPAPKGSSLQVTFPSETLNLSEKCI
Sequence of Cytochrome P450 2C9 (P11712 whole entry): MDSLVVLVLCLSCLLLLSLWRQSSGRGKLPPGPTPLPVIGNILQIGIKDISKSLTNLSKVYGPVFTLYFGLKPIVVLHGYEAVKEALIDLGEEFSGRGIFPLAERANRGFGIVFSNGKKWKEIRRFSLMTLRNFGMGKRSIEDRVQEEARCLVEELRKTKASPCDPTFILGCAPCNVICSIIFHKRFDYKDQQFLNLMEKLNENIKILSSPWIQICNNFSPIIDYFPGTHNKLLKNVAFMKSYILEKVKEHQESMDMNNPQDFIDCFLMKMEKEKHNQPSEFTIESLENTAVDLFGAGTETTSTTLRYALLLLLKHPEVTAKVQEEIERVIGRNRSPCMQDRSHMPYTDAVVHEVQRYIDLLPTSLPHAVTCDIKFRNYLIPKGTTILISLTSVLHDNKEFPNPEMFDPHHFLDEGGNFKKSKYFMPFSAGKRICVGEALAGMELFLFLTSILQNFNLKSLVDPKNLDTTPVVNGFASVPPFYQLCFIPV
Sequence of Prostaglandin E2 receptor EP2 subtype (P43116 whole entry): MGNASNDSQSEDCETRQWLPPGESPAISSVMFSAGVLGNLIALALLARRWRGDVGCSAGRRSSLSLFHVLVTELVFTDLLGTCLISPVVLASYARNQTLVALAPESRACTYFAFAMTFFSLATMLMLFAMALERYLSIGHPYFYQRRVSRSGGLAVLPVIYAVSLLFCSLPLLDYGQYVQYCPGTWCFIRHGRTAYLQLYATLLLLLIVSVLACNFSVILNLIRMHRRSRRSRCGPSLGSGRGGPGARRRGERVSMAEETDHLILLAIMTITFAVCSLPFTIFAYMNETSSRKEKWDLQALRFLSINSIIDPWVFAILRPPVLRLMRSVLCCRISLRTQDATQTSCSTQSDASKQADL
Sequence of Prostaglandin F2-alpha receptor (P43088 whole entry): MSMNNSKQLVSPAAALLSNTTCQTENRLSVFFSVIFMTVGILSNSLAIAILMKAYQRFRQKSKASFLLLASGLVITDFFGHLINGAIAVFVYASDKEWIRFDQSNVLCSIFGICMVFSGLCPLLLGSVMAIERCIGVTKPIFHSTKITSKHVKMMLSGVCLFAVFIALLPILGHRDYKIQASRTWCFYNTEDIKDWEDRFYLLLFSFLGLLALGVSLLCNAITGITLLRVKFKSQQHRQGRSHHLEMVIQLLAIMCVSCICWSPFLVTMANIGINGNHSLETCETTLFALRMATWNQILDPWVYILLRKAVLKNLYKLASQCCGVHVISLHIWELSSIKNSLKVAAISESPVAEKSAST
Sequence of Leukotriene B4 receptor 1 (Homo sapiens) (Q15722 whole entry): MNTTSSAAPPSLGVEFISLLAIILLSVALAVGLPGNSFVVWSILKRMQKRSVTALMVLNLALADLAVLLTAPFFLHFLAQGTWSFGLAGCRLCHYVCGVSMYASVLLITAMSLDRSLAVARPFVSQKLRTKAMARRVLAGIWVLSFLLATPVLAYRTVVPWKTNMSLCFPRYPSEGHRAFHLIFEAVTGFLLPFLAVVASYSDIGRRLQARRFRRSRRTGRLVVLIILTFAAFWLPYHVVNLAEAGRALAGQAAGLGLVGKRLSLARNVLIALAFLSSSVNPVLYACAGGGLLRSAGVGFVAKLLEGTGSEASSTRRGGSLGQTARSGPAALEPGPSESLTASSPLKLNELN

## Cc1c(CC(=O)O)c2cccnc2n1Cc1ccc([N+](=O)[O-])cc1
[1]
  fold change (FC): 4.1

## Cc1c(CC(=O)O)c2cccnc2n1Cc1ccc(C#N)cc1
[1]
  fold change (FC): 3.6
[2]
  Ki: 379 nM
[3]
  IC50: 554 nM

## Cc1c(CC(=O)O)c2cccnc2n1S(=O)(=O)c1ccc(F)c(F)c1
[1]
  fold change (FC): 1.3

## Cc1c(CC(=O)O)c2cccnc2n1Cc1ccc([S+](C)[O-])cc1 (racemic)
[1]
  fold change (FC): 3.1
[2]
  Ki: 249 nM
[3]
  IC50: 233 nM

## Cc1c(CC(=O)O)c2cccnc2n1Cc1cccnc1
[2]
  Ki: 1060 nM

## Cc1c(CC(=O)O)c2cccnc2n1S(=O)(=O)c1ccc(Cl)cc1
[1]
  fold change (FC): 3.8
[4]
  IC50: 108 nM
[5]
  inhibition: inactive
[6]
  inhibition: inactive
[3]
  IC50: 565 nM

## Cc1c(CC(=O)O)c2cccnc2n1Cc1ccccc1Cl
[2]
  Ki: 624 nM

## Cc1c(CC(=O)O)c2cccnc2n1Cc1ccncc1
[2]
  Ki: 2230 nM

## Cc1c(CC(=O)O)c2cccnc2n1Cc1ccc(S(C)(=O)=O)cc1 [QAV680]
[7]
  bioavailability: 35%
[8]
  Ki: 10 nM
[1]
  fold change (FC): 3.1
Rattus norvegicus [9]
  Activity: Dose-dependent effect
Mus musculus
  inhibition: Dose-dependent effect
Mus musculus; read-out: MED
  minimal effective dose: 10 mg/kg
[10]
  bioavailability: 54%
[11]
  Tmax: 39.6 min
[12]
  Tmax: 39.6 min
[13]
  IC50: > 10000 nM
[2]
  Ki: 36 nM
[14]
  IC50: > 10000 nM
[15]
  Cmax: 7.6 µM
[16]
  IC50: > 10000 nM
Cytochrome P450 1A2
  IC50: > 100000 nM
[17]
  Cmax: 42.7 µM
Rattus norvegicus [18]
  Activity: Active
Cytochrome P450 2C9
  IC50: > 100000 nM
[19]
  Papp B→A: 2.2 ×10⁻⁶ cm/s
[20]
  IC50: > 10000 nM
[5]
  inhibition: inactive
[21]
  IC50: > 10000 nM
[6]
  inhibition: inactive
[22]
  fraction unbound: 0.34
[23]
  IC50: 94 nM
[24]
  Vd: 5.5 L/kg
[25]
  Papp A→B: 0.9 ×10⁻⁶ cm/s
[3]
  IC50: 37 nM
[26]
  IC50: 59 nM
[27]
  inhibition: inactive
[28]
  inhibition: inactive
[29]
  Cmax: 2.6 µM
[30]
  inhibition: inactive
[31]
  half-life: 1030 min
Cytochrome P450 3A4
  IC50: > 100000 nM
[32]
  AUC(0-t) at 48 h: 6.06 µM·h
[33]
  clearance: 15.2 mL/min/kg
[34]
  inhibition: inactive
Prostacyclin receptor
  IC50: > 10000 nM
Cytochrome P450 2D6
  IC50: > 100000 nM
Thromboxane A2 receptor
  IC50: > 10000 nM
[35]
  AUC(0-t) at 48 h: 128 µM·h
[36]
  IC50: 25 nM
[37]
  solubility: 5200 µg/mL (≈ 14.5 mM)

## Cc1c(CC(=O)O)c2cccnc2n1Cc1ccccn1
[2]
  Ki: 2940 nM

## Cc1c(CC(=O)O)c2cccnc2n1Cc1ccc(S(=O)(=O)C(F)(F)F)cc1
[1]
  fold change (FC): 0.9
[2]
  Ki: 208 nM
[3]
  IC50: 147 nM

## Cc1c(CC(=O)O)c2cccnc2n1Cc1ccc(Cl)cc1
[1]
  fold change (FC): 4.1
[2]
  Ki: 149 nM
[5]
  inhibition: inactive
[6]
  inhibition: inactive
[3]
  IC50: 484 nM
